Tests used:
[1] = system: normal NK cells expanded with K562-aAPC; assay: percent inhibition of viability; higher = more inhibition; conditions: 72 h, IL-2 2.5 ng/mL
Description: (§1)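 Drug sensitivity and resistance testing on K562-aAPC-expanded normal NK cells: 5 concentrations (10-fold steps over a 10,000-fold range), 72 h at 37 °C, viability by CellTiter-Glo normalised to DMSO and benzethonium chloride controls; DSS from the fitted curve.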

[2] = system: normal NK cells expanded with K562-aAPC; assay: drug sensitivity score (DSS) (DSS units); higher = more sensitive; extreme values may be limits of the assay; conditions: 72 h; IL-2 2.5 ng/mL
Description: as §1

NK-YS (IL-2 2.5 ng/mL) [3] = assay: percent inhibition of viability; higher = more inhibition; conditions: 72 h
KHYG-1 (IL-2 2.5 ng/mL) [4] = assay: as above; conditions: 72 h
[5] = system: normal primary NK cells, pool 3 (3 donors) (IL-2 2.5 ng/mL); assay: as above; conditions: 72 h
KAI3 (IL-2 2.5 ng/mL) [6] = assay: as above; conditions: 72 h
NK-92 (IL-2 2.5 ng/mL) [7] = assay: as above; conditions: 72 h
[8] = system: normal primary NK cells, pool 1 (3 donors), resting (IL-2 0 ng/mL); assay: as above; conditions: 72 h
[9] = system: normal primary NK cells, pool 1 (3 donors) (IL-2 2.5 ng/mL); assay: as above; conditions: 72 h
NKL (IL-2 2.5 ng/mL) [10] = assay: as above; conditions: 72 h
YT (IL-2 2.5 ng/mL) [11] = assay: as above; conditions: 72 h
[12] = system: normal primary NK cells, pool 2 (3 donors) (IL-2 2.5 ng/mL); assay: as above; conditions: 72 h
IMC-1 (IL-2 20 ng/mL) [13] = assay: as above; conditions: 72 h
DERL-7 (IL-2 2.5 ng/mL) [14] = assay: as above; conditions: 72 h
SNK-6 (IL-2 2.5 ng/mL) [15] = assay: as above; conditions: 72 h
NK-YS (IL-2 2.5 ng/mL) [16] = assay: drug sensitivity score (DSS) (DSS units); higher = more sensitive; extreme values may be limits of the assay; conditions: 72 h
KHYG-1 (IL-2 2.5 ng/mL) [17] = assay: as above; conditions: 72 h
[18] = system: normal primary NK cells, pool 3 (3 donors) (IL-2 2.5 ng/mL); assay: as above; conditions: 72 h
KAI3 (IL-2 2.5 ng/mL) [19] = assay: as above; conditions: 72 h
NK-92 (IL-2 2.5 ng/mL) [20] = assay: as above; conditions: 72 h
[21] = system: normal primary NK cells, pool 1 (3 donors), resting (IL-2 0 ng/mL); assay: as above; conditions: 72 h
[22] = system: normal primary NK cells, pool 1 (3 donors) (IL-2 2.5 ng/mL); assay: as above; conditions: 72 h
NKL (IL-2 2.5 ng/mL) [23] = assay: as above; conditions: 72 h
YT (IL-2 2.5 ng/mL) [24] = assay: as above; conditions: 72 h
[25] = system: normal primary NK cells, pool 2 (3 donors) (IL-2 2.5 ng/mL); assay: as above; conditions: 72 h
IMC-1 (IL-2 20 ng/mL) [26] = assay: as above; conditions: 72 h
DERL-7 (IL-2 2.5 ng/mL) [27] = assay: as above; conditions: 72 h
SNK-6 (IL-2 2.5 ng/mL) [28] = assay: as above; conditions: 72 h

O=[N+]([O-])c1ccc2c(c1)S(=O)(=O)C=C2 [Stattic] (max concentration tested 50000 nM)
percent inhibition of viability [%]
Conditions | 5 nM | 50 nM | 500 nM | 5000 nM | 50000 nM
DERL-7 (IL-2 2.5 ng/mL) [14] | -5.69 | 0.09 | 8.66 | 100 | 100
IMC-1 (IL-2 20 ng/mL) [13] | -3.55 | -2.13 | -12.2 | -14.1 | 99.9
KAI3 (IL-2 2.5 ng/mL) [6] | -6.42 | 3 | 11.7 | 101 | 100
KHYG-1 (IL-2 2.5 ng/mL) [4] | -5.88 | -5.42 | -4.14 | 99.4 | 99.5
NK-92 (IL-2 2.5 ng/mL) [7] | -16.4 | -10.7 | -9.15 | 100 | 99.3
NK-YS (IL-2 2.5 ng/mL) [3] | -2.31 | -3.08 | -1.75 | 31.7 | 98.3
NKL (IL-2 2.5 ng/mL) [10] | -2.42 | -9.08 | -17.6 | 52.9 | 97.8
SNK-6 (IL-2 2.5 ng/mL) [15] | 4.25 | -11.5 | -24.7 | 100 | 100
YT (IL-2 2.5 ng/mL) [11] | -7.41 | -5.02 | -6.62 | 99.5 | 99.9
[1] | -4.23 | -7.77 | -7.3 | 100 | 100
[5] | -6.16 | -7.86 | -9.75 | 99.1 | 101
[8] | -24.1 | -39.5 | 15.7 | 93.9 | 100
[9] | -14.2 | -14 | 11.9 | 98.5 | 100
[12] | -5.68 | 1.61 | 1.47 | 96.5 | 99.9

Conditions | drug sensitivity score
DERL-7 (IL-2 2.5 ng/mL) [27] | 19.4
IMC-1 (IL-2 20 ng/mL) [26] | 4.71
KAI3 (IL-2 2.5 ng/mL) [19] | 19.9
KHYG-1 (IL-2 2.5 ng/mL) [17] | 17.5
NK-92 (IL-2 2.5 ng/mL) [20] | 17.3
NK-YS (IL-2 2.5 ng/mL) [16] | 9.96
NKL (IL-2 2.5 ng/mL) [23] | 11.8
SNK-6 (IL-2 2.5 ng/mL) [28] | 16.6
YT (IL-2 2.5 ng/mL) [24] | 17.3
[2] | 17.4
[18] | 17.1
[21] | 19.4
[22] | 19.9
[25] | 17.7

COc1cc(C(=O)NC2CCN(C)CC2)c(F)cc1Nc1ncc2c(n1)N(C1CCCC1)CC(F)(F)C(=O)N2C [TAK-960] (max concentration tested 2500 nM)
percent inhibition of viability [%]
Conditions | 0.25 nM | 2.5 nM | 25 nM | 250 nM | 2500 nM
DERL-7 (IL-2 2.5 ng/mL) [14] | -1.39 | -5.61 | -0.81 | -6.15 | -11.4
IMC-1 (IL-2 20 ng/mL) [13] | -4.4 | 4.01 | 9.33 | 8.23 | 11.8
KAI3 (IL-2 2.5 ng/mL) [6] | -8.99 | -1.96 | -2.51 | -1.54 | 2.64
KHYG-1 (IL-2 2.5 ng/mL) [4] | 0.04 | 3.31 | 3.4 | 2.48 | 6.51
NK-92 (IL-2 2.5 ng/mL) [7] | -8.09 | -7.71 | 9.2 | -1.64 | 15.2
NK-YS (IL-2 2.5 ng/mL) [3] | -3.49 | 1.57 | 0.97 | 0.32 | 6.84
NKL (IL-2 2.5 ng/mL) [10] | -17.8 | -2.17 | 0.04 | 4.31 | 2.51
SNK-6 (IL-2 2.5 ng/mL) [15] | 22.6 | 22 | 36.4 | 38 | 22.1
YT (IL-2 2.5 ng/mL) [11] | 1.09 | 0.71 | 8.79 | 0.43 | 6.32
[1] | -3.09 | 0.01 | 0.41 | 9.42 | 8.37
[5] | -10.9 | -5.87 | 7.99 | -6.67 | -0.88
[8] | 11.1 | -6.28 | -3.33 | -13.8 | -6.51
[9] | 7.7 | -2.83 | -1.46 | -9 | 3.2
[12] | -10.9 | -4.09 | 10.7 | 0.25 | 13.6

Conditions | drug sensitivity score
DERL-7 (IL-2 2.5 ng/mL) [27] | 0.89
IMC-1 (IL-2 20 ng/mL) [26] | 0.63
KAI3 (IL-2 2.5 ng/mL) [19] | 0
KHYG-1 (IL-2 2.5 ng/mL) [17] | 0
NK-92 (IL-2 2.5 ng/mL) [20] | 0.18
NK-YS (IL-2 2.5 ng/mL) [16] | 0
NKL (IL-2 2.5 ng/mL) [23] | 0
SNK-6 (IL-2 2.5 ng/mL) [28] | 13
YT (IL-2 2.5 ng/mL) [24] | 0
[2] | 0
[18] | 0
[21] | 0
[22] | 0
[25] | 0.16
